Earlier results in patent publication US20250049933A1, “DRUG DELIVERY SYSTEM FOR TARGETED CANCER TREATMENT” (priority 2024, published 2025).

Assays:
[1] = tested on: pancreatic cancer
[2] = in vivo

oral bioavailability [2]: 9%
Compound: Nc1ccn([C@@H]2O[C@H](CO)[C@@H](O)C2(F)F)c(=O)n1 [GEM, gemcitabine]
overall survival [1]: 6.7 months
